{"source": "paper PMC7724566", "about": "“Prospects for Clinical Development of Stat5 Inhibitor IST5-002: High Transcriptomic Specificity in Prostate Cancer and Low Toxicity In Vivo” (Cancers, 2020)", "key": {"[1]": {"system": "Stat5", "test": "Stat5 phosphorylation in K562 cells (immunoblot)", "type": "cell-based, human", "conditions": "4 days", "method": "In order to evaluate whether the phosphate group of IST5 is critical for IST5 activity in cell-based assays, we compared the potency of IST5 (Figure 4A) to that of IST5-M (IST5 without the phosphate group) (Figure 4B) in inhibiting phosphorylation of Stat5 in PC and CML cells. CML (K562) cells and PC (CWR22Rv1) cells were cultured for 4 days with increasing concentrations of IST5 and IST5-M (Figure 4C,D). […] Collectively, these finding indicate that IST5 and IST5-M have similar efficacies in inhibiting phosphorylation of Stat5 in both CML and PC cells.\nFigure 4 IST5 and the IST5-derivative lacking the phosphate group (IST5-M), both, inhibit Stat5 phosphorylation in CML and prostate cancer cell line with high efficacy. (A), chemical structure of IST5-002 (IST5). (B), chemical structure of IST5-M (IST5 without the phosphate group. (C), IST5 and IST5-M both inhibit Stat5 phosphorylation in CML cells (K562) with high efficacy. K562 cells were treated with IST5 and IST5-M for 4 days at the concentrations indicated. Whole cell lysates (WCL) were immunoblotted with anti-pYStat5 mAb, anti-Stat5 mAb and anti-actin mAb as loading control. (D), IST5 and IST5-M, both, decrease Stat5 phosphorylation in PC cells (CWR22Rv1). CWR22Rv1 cells were treated with increasing concentrations of IST5 and IST5-M for 4 days. Stat5 was immunoprecipitated (IP) followed by immunoblotting (WB) with anti-pYStat5 mAb and anti-Stat5 mAb. Whole cell lysates (WCL) were immunoblotted with anti-actin mAb as loading control.\nCell pellets were solubilized in the lysis buffer (10 mM Tris-HCl (pH 7.6), 5 mM EDTA, 50 mM sodium chloride, 30 mM sodium pyrophosphate, 50 mM sodium fluoride, 1 mM sodium orthovanadate, 1% Triton X-100, 1 mM phenylmethylsulfonyl fluoride, 5 µg/mL aprotinin, 1 µg/mL pepstatin A and 2 µg/mL leupeptin), and protein concentrations of clarified cell lysates were determined by a simplified Bradford method (Bio-Rad, Hercules, CA, USA). The whole cell lysates were immunoprecipitated with polyclonal antibodies (Table S1) followed by incubation with protein A-Sepharose beads (GE Healthcare, Chicago, IL, USA). The cell lysates and immunoprecipitated proteins were separated on 4–12% SDS-PAGE (Life Technologies, Brown Deer, WI, USA) and transferred electrophoretically to polyvinylidene fluoride membrane (Millipore). For immunoblotting, blocking buffer was tris-buffered saline and tween 20 (TBST, 0.15 M NaCl; 0.1% Tween 20; 50 mM Tris, pH 8.0) with 3% bovine serum albumin (BSA). The immunoreaction with the specific antibodies (Table S1) was detected by horseradish peroxidase-conjugated secondary antibodies followed by enhanced chemiluminescence (GE Healthcare)."}, "[2]": {"system": "Stat5", "test": "Ligand-induced Stat5 dimerization, two cell-based assays (summary)", "design": "species or system human", "conditions": "read-out: IC50, suppression of ligand-induced Stat5 dimerization; both cell-based dimerization assays", "text": "(§1) Down-regulation of Stat5 phosphorylation by IST5 can theoretically be caused by IST5 blocking Stat5 monomer docking to the activated receptor-Jak2 complex (Figure 1) and/or by IST5 inhibition of Jak2 kinase activity. […] To further investigate whether IST5 is able to disrupt dimerization of Stat5 molecules, we employed two separate cell-based assays. […] Because both phosphorylation and dimerization of Stat5 were inhibited at similar concentrations of IST5, it is difficult to determine whether disruption of Stat5 dimerization by IST5 is caused by suppression of Stat5 phosphorylation or a direct effect of IST5 in hindering Stat5 dimer-formation or both events occurring at the same time in the cell. However, it is known that heteromolecular interactions are easier to disrupt than interactions between two Stat5 monomers implying that the primary mechanism of action of IST5 may be suppression of Stat5 docking to the receptor-kinase complex. It is important to note that bypassing tyrosine kinases responsible for Stat5 phosphorylation by utilizing direct Stat5 inhibitor would be advantageous for therapy development for Stat5-regulated cancers because targeting Stat5 directly is likely to cause less off-target side effects than targeting kinases or cell surface receptors."}, "[3]": {"system": "chronic myeloid leukemia (CML) cells", "design": "method as in PMID 26026053", "conditions": "cited from earlier work"}, "[4]": {"system": "Stat5", "test": "Stat5 phosphorylation in cancer cells (summary)", "type": "cell-based, human", "conditions": "read-out: IC50, inhibition of Stat5 phosphorylation, range over cell lines", "text": "as §1"}}}
{"smiles": "O=P(O)(O)OCC1OC(n2cnc3c(NCc4ccccc4)ncnc32)C(O)C1O", "note": "(centres unmarked) [IST5]", "values": [{"measurement": "inhibition of Stat5 phosphorylation", "setting": "[1]; 2 µM, K562 cells", "value": "75–90%"}, {"measurement": "IC50", "setting": "[1]; read-out: IC50, inhibition of Stat5 phosphorylation, K562 CML cells", "value": "~1100", "unit": "nM"}, {"measurement": "IC50", "setting": "[2]", "value": "1000 to 1300", "unit": "nM"}, {"measurement": "efficacy in CML cells", "setting": "[3]", "value": "remarkable efficacy"}, {"measurement": "IC50", "setting": "[4]", "value": "1100 to 1300", "unit": "nM"}]}
